Reference: patent US12195435B2, “5-methylchromone and the preparation method and application thereof” (HAINAN MEDICAL UNIVERSITY, priority 2020, dated 2025)

Molecular target: tyrosinase
Assay: Determination of the activity of compounds inhibiting tyrosinase (L-tyrosine substrate, absorbance at 475 nm)
Format: biochemical
Conditions: for IC50: L-tyrosine 0.1 mg/mL, tyrosinase 48 U/mL, pH 6.8, 37° C. 30 min, n = 3, read-out: IC50 ± SEM (tyrosinase inhibition); for tyrosinase inhibitory activity (in words, compared with aloesin): comparison with positive control aloesin
Protocol: Method for determining the activity of inhibiting tyrosinase: Firstly, adding the sample: 40 μL (10% DMSO, setting different concentrations (0, 25, 50, 100, 200 μg/mL)) into a 96-well plate (aloesin is the positive control), then adding L-tyrosine: 40 μL (0.1 mg/mL, dissolving in 0.1M potassium phosphate buffer solution, pH=6.8), tyrosinase: 40 μL (48 U/mL, dissolving in 0.1M potassium phosphate buffer solution, pH=6.8), and finally diluting the volume to 200 μL with potassium phosphate buffer solution, and detecting the absorbance at 475 nm on 0 min; after incubating at 37° C. for 30 min, measuring the absorbance.

Compound	IC50	tyrosinase inhibitory activity (in words, compared with aloesin)
CC(=O)Cc1cc(=O)c2c(C)cc(O)c([C@@H]3O[C@H](CO)[C@@H](O)[C@H](O)[C@H]3O)c2o1 [Aloesin, aloesin, reference compound]	2700 ± 40 µM	
Cc1cc(=O)c2c(C)cc(O)cc2o1 [Compound 1-1]	9300 ± 90 µM	
CCc1cc(=O)c2c(C)cc(O)cc2o1 [Compound 1-2]	6200 ± 70 µM	
CCCc1cc(=O)c2c(C)cc(O)cc2o1 [Compound 1-3]	2400 ± 100 µM	
Cc1cc(O)cc2oc(C(C)(C)C)cc(=O)c12 [Compound 1-4]	5400 ± 30 µM	
CCCc1cc(=O)c2c(C)cc(OC)cc2o1 [Compound 1-5]	200 ± 70 µM	higher than the tyrosinase inhibitory activity of aloesin
CCCc1cc(=O)c2c(C)cc(OCC)cc2o1 [Compound 1-6]	600 ± 30 µM	higher than the tyrosinase inhibitory activity of aloesin
